The test deals with Rattus norvegicus. In words: Ability to protect against glutamate-induced convulsion in rat upon i.p. administration. It counts as functional.
Setting [1] is: Rattus norvegicus, ip, read-out: ED50.

SMILES strings stand for the structures.

Turning to `CSCCn1c(=N)sc2cc(OC(F)(F)F)ccc21`, the ED50 under setting [1] came to 1 mg/kg.

With `C[S+]([O-])CCn1c(=N)sc2cc(OC(F)(F)F)ccc21` (single isomer, unassigned; (+)), the ED50 worked out at 1 mg/kg.

The compound `C[S+]([O-])CCn1c(=N)sc2cc(OC(F)(F)F)ccc21` (stereo in doubt; 3) came in with an ED50 of 1.1 mg/kg.

Take `Nc1nc2ccc(OC(F)(F)F)cc2s1` [RILUZOLE]: the ED50 under setting [1] came out at 3.2 mg/kg.

`C[S+]([O-])CCn1c(=N)sc2cc(OC(F)(F)F)ccc21` (single isomer, unassigned; (-)): under setting [1], the median effective dose (ED50) was found to be 1.6 mg/kg.

Values taken from ChEMBL document CHEMBL1150020, “Optical isomers of RP 64406: New potent antiglutamate agents” (1993).
